{
  "source": "ChEMBL document CHEMBL1151994",
  "about": "“Plant seeds as sources of potential industrial chemicals, pharmaceuticals, and pest control agents” (2009)",
  "assay_type_in_all_cases": "functional",
  "key": {"Ostrinia nubilalis": {"system": "Ostrinia nubilalis", "test": "Insecticidal activity against Ostrinia nubilalis", "details": "read-out: LD50 (the source's name)"}, "PS [1]": {"system": "PS", "test": "In vivo antitumor activity against […] PS cells at 1 to 31 ug/kg relative to control"}, "KB": {"system": "KB", "test": "Cytotoxicity against human KB cells", "details": "for EC50: Homo sapiens, KB, read-out: ED50 (the source's name)"}, "[2]": {"test": "In vivo antitumor activity against human B1 cells at 4 to 32 ug/kg relative to control"}, "P388 [3]": {"system": "P388", "test": "In vivo antitumor activity against mouse P388 cells at 0.25 to 1 mg/kg relative to control", "details": "dose mg/kg 0.25-1"}, "L1210": {"system": "L1210", "test": "In vivo antitumor activity against mouse L1210 cells at 0.25 to 1 mg/kg relative to control", "details": "dose mg/kg 0.25-1"}, "P388 [4]": {"system": "P388", "test": "In vivo antitumor activity against mouse P388 cells at 1 to 3.3 mg/kg relative to control", "details": "dose mg/kg 1-3.3"}, "PS [5]": {"system": "PS", "test": "In vivo antitumor activity against […] PS cells at 8 to 23 ug/kg relative to control"}},
  "data": [
    {"smiles": "CO[C@@H]1[C@@H](O)[C@H](C)O[C@@H](O[C@H]2CC[C@@]3(C)[C@H](CC[C@@H]4[C@@H]3CC[C@]3(C)[C@@H](C5=CC(=O)OC5)CC[C@]43O)C2)[C@H]1OC(C)=O", "values": [
      {"measurement": "LC50", "setting": "Ostrinia nubilalis", "value": 192, "unit": "µg/mL"}
    ]},
    {"smiles": "CO[C@H]1[C@H](O)[C@H](O[C@H]2CC[C@@]3(C)[C@H](CC[C@@H]4[C@@H]3CC[C@]3(C)[C@@H](C5=CC(=O)OC5)CC[C@]43O)C2)O[C@@H](C)[C@@H]1O", "note": "[NERIIFOLIN]", "values": [
      {"measurement": "LC50", "setting": "Ostrinia nubilalis", "value": 30, "unit": "µg/mL"}
    ]},
    {"smiles": "COc1cc2cc(c1Cl)N(C)C(=O)C[C@H](OC(=O)[C@H](C)N(C)C(=O)C(C)C)[C@]1(C)O[C@H]1[C@H](C)[C@@H]1C[C@@](O)(NC(=O)O1)[C@H](OC)/C=C/C=C(\\C)C2OC", "note": "(stereo partly specified) [TREWIASINE]", "values": [
      {"measurement": "T/C", "setting": "PS [1]", "value": 126, "unit": "%"},
      {"measurement": "ED50", "setting": "KB", "value": 2, "unit": "×10⁻⁴ ug/ml"},
      {"measurement": "T/C", "setting": "[2]", "value": 165, "unit": "%"}
    ]},
    {"smiles": "COC(=O)C[C@](O)(CCCC(C)(C)O)C(=O)O[C@@H]1C(OC)=C[C@]23CCCN2CCc2cc4c(cc2[C@H]13)OCO4", "note": "[OMACETAXINE MEPESUCCINATE]", "values": [
      {"measurement": "T/C", "setting": "P388 [3]", "value": 244, "unit": "%"},
      {"measurement": "T/C", "setting": "L1210", "value": 123, "unit": "%"}
    ]},
    {"smiles": "C/C=C(\\C)C(=O)N[C@@H](c1ccccc1)[C@@H](O)C(=O)O[C@H]1C[C@@]2(O)[C@@H](OC(=O)c3ccccc3)[C@@H]3[C@]4(OC(C)=O)CO[C@@H]4C[C@H](O)[C@@]3(C)C(=O)[C@H](OC(C)=O)C(=C1C)C2(C)C", "note": "[CEPHALOMANNINE]", "values": [
      {"measurement": "EC50", "setting": "KB", "value": 3.8, "unit": "ng/mL"},
      {"measurement": "T/C", "setting": "P388 [4]", "value": 158, "unit": "%"}
    ]},
    {"smiles": "C=C1CO[C@](O)(C2OCOC(C3CC(=O)NC(=O)C3)[C@@H]2O)[C@H]1C", "note": "(stereo partly specified) [SESBANIMIDE A]", "values": [
      {"measurement": "EC50", "setting": "KB", "value": 7.7, "unit": "ng/mL"},
      {"measurement": "T/C", "setting": "PS [5]", "value": 140, "unit": "%"}
    ]}
  ]
}
